The values below come from patent US20230089368A1, “POLYAROMATIC UREA DERIVATIVES AND THEIR USE IN THE TREATMENT OF MUSCLE DISEASES” (ANAGENESIS BIOTECHNOLOGIES S.A.S., priority 2019, published 2023).

In assay [1] the test system is muscle progenitors (hMP) from DMD hiPSC or WT hiPSC. Put plainly: Myotube assay: myogenic activity (total myotube area per well). Format: cell-based, human. Particulars: Homo sapiens, 72 h, myotube assay, compounds incubated 3 days; for Emax: read-out: MA (normalized Myotube Area, efficacy); for EC50: 10 points dose-response 1.5 nM to 30 μM, read-out: EC50 (myogenic activity, half-maximal generation of myotubes). As to the method: An in vitro assay for assessing the efficacy of compounds for use in treating, ameliorating, delaying, curing and/or preventing a disease or condition associated with muscle cells and/or satellite cells is described in example 78. Herein, the generation of myotubes and satellite cells after adding a compound to a myotube assay workflow is assessed. Said myotube assay workflow is derived from wild-type or DMD human induced pluripotent stem cells (WT hiPSC or DMD hiPSC). Before the addition of said compound, the assay comprises satellite-like cells, but no significant amount of myotubes.
(§1) The efficacy of said compound for use in treating, ameliorating, delaying, curing and/or preventing a disease or condition associated with muscle cells and/or satellite cells is positively correlated with the generation of myotubes (i.e. the increase of the area occupied by myotubes on the assay) and/or satellite cells (i.e. the increase of the number of satellite cells) in the assay after adding said compound. The generation of myotubes by the addition of said compound is expressed as the EC50 value, the concentration of said compound that corresponds with the half-maximal generation of myotubes, and the MA (normalized myotube area) value, the normalized area occupied by generated myotubes on the assay. […] Since muscle cells are formed from myotubes during myogenesis, the generation of myotubes in the assay is a good indicator of the ability of said compound to induce the formation of functional muscle cells in vivo. The number of satellite cells is measured as the percentage of Pax7 positive cells, relative to the total number of cells in the assay, as shown in FIG. 3. The percentage of Pax7 is a good indicator of the ability of said compound to induce the formation of satellite cells which are able to play a role in muscle repair and regeneration in vivo.
(§2) DMD human induced pluripotent stem cells (hereafter “DMD hiPSC”), generated from the NORM-1 hiPSC WT cell line by gene editing, or WT human induced pluripotent stem cells (hereafter “WT hiPSC”), being NORM-1 hiPSC wt cell line, have been differentiated according to Chal et al. 2015, 2016, to produce muscle progenitors (hereafter “hMP”). The hMP population contains satellite-like cells (i.e Pax7-positive cells) and satellite cells' progenies (i.e. Myogenin-positive cells).
(§3) FIG. 1 provides an example of a Myotube assay workflow. At day 0, hMP are thawed and 3.1 million cells are plated into a T75-flask coated with hESC-qualified Matrigel™ (Corning) in SkGM proliferating medium (PromoCells), supplemented with 5 μM Y-27632 (Tocris Bioscience). On day 2, SkGM proliferating medium is refreshed. On day 4, hMP are harvested and transferred into a 384-well plate coated with collagen type I at a density of 3500 cells/well in a DMEM-based medium, containing 5% of knockout serum replacement (Gibco), 1% PenStrep (Gibco), 1% MEM NEAA (Gibco) and 0.1 mM 2-mercaptoethanol (Gibco) (hereafter “K5 medium”) and 5 μM Y-27632. Compounds to be tested are then added in the medium and incubated for 3 days at 37° C. On day 7, cells are fixed and immunostained. For example, myotubes (alpha-actinin staining) and satellite-like (Pax7 staining) cells can be analyzed for total myotube area per well or Pax7-positive cell quantification.
DMD hMP were put in the Myotube assay according to the workflow described in Example 2.1. In particular, compound (i) was added at concentrations ranging from 1.5 nM to 30 μM, starting from day 4. hMP were cultivated for three more days in presence of compound (i), then fixed and analyzed for quantification of total myotube area per well. Duplicates of each condition were averaged.
Qualitative scale: ++++: EC50<500 nM; +++: 500 nM≤EC50<1000 nM; ++: 1000 nM≤EC50<5000 nM; +: EC50≥5000 nM; +++: MA≥75%; ++: 50%≤MA<75%; +: 25%≤MA<50%.

The subject of assay [2] is satellite-like cells (Pax7-positive cells) in hMP. The assay can be described thus: Myotube assay: Pax7-positive (satellite-like) cell quantification. Particulars: myotube assay, compounds incubated 3 days. Set-up: key to Pax7% (pool of Pax7-positive cells) / Pax7: −: Depletes the pool of cells, while positively affects the myotubes; +: Maintains or increases the pool of cells, with at least 1 of the highest concentration known to be cytotoxic; ++: Maintains or increases the pool of cells, without any toxicity. Format: cell-based, human.
Source text: as §1, §2, §3
DMD hMP were put in the Myotube assay according to the workflow described in Example 2.1. In particular, compound (i) was added at concentrations ranging from 1.5 nM to 30 μM, starting from day 4. hMP were cultivated for three more days in presence of compound (i), then fixed and analyzed for percentage of Pax7-positive cells and nuclei number. Duplicates of each condition were averaged.
(−): Depletes the pool of cells, while positively affects the myotubes; (+): Maintains or increases the pool of cells, with at least 1 of the highest concentration known to be cytotoxic; and (++) Maintains or increases the pool of cells, without any toxicity.

As for `CSc1cc(Oc2ccnc3[nH]c(=O)cnc23)ccc1NC(=O)Nc1cc(C(C)(C)C)nn1-c1ccccn1` [(ar), 1-(3-(tert-butyl)-1-(pyridin-2-yl)-1H-pyrazol-5-yl)-3-(2-(methylthio)-4-((3-oxo-3,4-dihydropyrido[2,3-b]pyrazin-8-yl)oxy)phenyl)urea], in assay [1], the Emax was ≥ 75%. Besides, in assay [2], the “Pax7% (pool of Pax7-positive cells)” value is listed as “++”.
For `CSc1cc(Oc2ccnc3[nH]c(=O)cnc23)ccc1NC(=O)Nc1cc(C(C)(C)C)nn1-c1cccc(Cl)c1` [(as), 1-(3-(tert-butyl)-1-(3-chlorophenyl)-1H-pyrazol-5-yl)-3-(2-(methylthio)-4-((3-oxo-3,4-dihydropyrido[2,3-b]pyrazin-8-yl)oxy)phenyl)urea], in that order: ≥ 75% and “+”.
Take `CSc1cc(Oc2ccnc3[nH]c(=O)cnc23)ccc1NC(=O)Nc1cc(C(C)(C)C)nn1-c1ccccc1Cl` [(at), 1-(3-(tert-butyl)-1-(2-chlorophenyl)-1H-pyrazol-5-yl)-3-(2-(methylthio)-4-((3-oxo-3,4-dihydropyrido[2,3-b]pyrazin-8-yl)oxy)phenyl)urea]: the Emax in assay [1] is ≥ 75%. For the same compound, the “Pax7% (pool of Pax7-positive cells)” value in assay [2] is listed as “++”.
Turning to `CSc1cc(Oc2ccnc3c2ncc(=O)n3C)ccc1NC(=O)Nc1cc(C(C)(C)C)nn1-c1ccccc1` [(au), 1-(3-(tert-butyl)-1-phenyl-1H-pyrazol-5-yl)-3-(4-((4-methyl-3-oxo-3,4-dihydropyrido[2,3-b]pyrazin-8-yl)oxy)-2-(methylthio)phenyl)urea], in assay [1], the Emax was ≥ 75%. In assay [2], the “Pax7% (pool of Pax7-positive cells)” value is recorded as “++”.
For `COc1ccccc1-n1nc(C(C)(C)C)cc1NC(=O)Nc1ccc(Oc2ccnc3[nH]c(=O)cnc23)cc1SC` [(av), 1-(3-(tert-butyl)-1-(2-methoxyphenyl)-1H-pyrazol-5-yl)-3-(2-(methylthio)-4-((3-oxo-3,4-dihydropyrido[2,3-b]pyrazin-8-yl)oxy)phenyl)urea], in assay [1], the EC50 is ≥ 5000 nM and the Emax was ≥ 75%. For the same compound, the “Pax7% (pool of Pax7-positive cells)” value in assay [2] is “++”.
As to `COc1cccc(-n2nc(C(C)(C)C)cc2NC(=O)Nc2ccc(Oc3ccnc4[nH]c(=O)cnc34)cc2SC)c1` [(aw), 1-(3-(tert-butyl)-1-(3-methoxyphenyl)-1H-pyrazol-5-yl)-3-(2-(methylthio)-4-((3-oxo-3,4-dihydropyrido[2,3-b]pyrazin-8-yl)oxy)phenyl)urea], the Emax in assay [1] is ≥ 75%. The “Pax7% (pool of Pax7-positive cells)” value in assay [2] is “+”.
Take `CSc1cc(Oc2ccnc3[nH]c(=O)cnc23)ccc1NC(=O)Nc1nc(-c2ccc(F)c(F)c2)cs1` [(ax), 1-(4-(3,4-difluorophenyl)thiazol-2-yl)-3-(2-(methylthio)-4-((3-oxo-3,4-dihydropyrido[2,3-b]pyrazin-8-yl)oxy)phenyl)urea]: in assay [1], the Emax lay within 50 to 75%. The “Pax7% (pool of Pax7-positive cells)” value in assay [2] is recorded as “++”.
On to `CSc1cc(Oc2ccnc3[nH]c(=O)cnc23)ccc1NC(=O)Nc1nnc(-c2ccccc2)s1` [(ay), 1-(2-(methylthio)-4-((3-oxo-3,4-dihydropyrido[2,3-b]pyrazin-8-yl)oxy)phenyl)-3-(5-phenyl-1,3,4-thiadiazol-2-yl)urea], for which, in assay [1], the EC50 lay in the range of 1000 to 5000 nM and the Emax was ≥ 75%. Besides, in assay [2], the “Pax7% (pool of Pax7-positive cells)” value was “++”.
Consider `Cc1ccc(-n2nc(C(C)(C)C)cc2NC(=O)Nc2ccc(Oc3ccnc4[nH]c(=O)cnc34)cc2C(F)(F)F)cc1` [(az), 1-(3-(tert-butyl)-1-(p-tolyl)-1H-pyrazol-5-yl)-3-(4-((3-oxo-3,4-dihydropyrido[2,3-b]pyrazin-8-yl)oxy)-2-(trifluoromethyl)phenyl)urea], for which the Emax in assay [1] was ≥ 75%. The “Pax7% (pool of Pax7-positive cells)” value in assay [2] is recorded as “++”.
As for `CC(C)c1cc(NC(=O)Nc2ccc(Oc3ccnc4[nH]c(=O)cnc34)cc2F)n(-c2ccccc2)n1` [(b), 1-(2-fluoro-4-((3-oxo-3,4-dihydropyrido[2,3-b]pyrazin-8-yl)oxy)phenyl)-3-(3-isopropyl-1-phenyl-1H-pyrazol-5-yl)urea], the Emax in assay [1] was in the range of 25 to 50%. Moreover, the “Pax7% (pool of Pax7-positive cells)” value in assay [2] was “++”.
For `CC(C)(C)c1cnc(NC(=O)Nc2ccc(Oc3ccnc4[nH]c(=O)cnc34)c3ccccc23)s1` [(ba), 1-(5-(tert-butyl)thiazol-2-yl)-3-(4-((3-oxo-3,4-dihydropyrido[2,3-b]pyrazin-8-yl)oxy)naphthalen-1-yl)urea], in that order: ≥ 75% and “++”.
Take `CC(C)(C)c1cc(NC(=O)Nc2ccc(Oc3ccnc4[nH]c(=O)cnc34)c3ccccc23)n(-c2ccc3ncccc3c2)n1` [(bb), 1-(3-(tert-butyl)-1-(quinolin-6-yl)-1H-pyrazol-5-yl)-3-(4-((3-oxo-3,4-dihydropyrido[2,3-b]pyrazin-8-yl)oxy)naphthalen-1-yl)urea]: the Emax in assay [1] was ≥ 75%. In addition, the “Pax7% (pool of Pax7-positive cells)” value in assay [2] is “+”.
As to `COc1cc(Oc2ccnc3[nH]c(=O)cnc23)ccc1NC(=O)Nc1cc(C(C)(C)C)nn1-c1ccccc1` [(bc), 1-(3-(tert-butyl)-1-phenyl-1H-pyrazol-5-yl)-3-(2-methoxy-4-((3-oxo-3,4-dihydropyrido[2,3-b]pyrazin-8-yl)oxy)phenyl)urea], in assay [1], the EC50 was 1000 to 5000 nM and the Emax was ≥ 75%. Besides, the “Pax7% (pool of Pax7-positive cells)” value in assay [2] is “++”.
As to `CSc1cc(Oc2ccnc3[nH]c(=O)cnc23)ccc1NC(=O)Nc1cc(C(C)(C)C)nn1-c1ccc(C)nc1` [(bd), 1-(3-(tert-butyl)-1-(6-methylpyridin-3-yl)-1H-pyrazol-5-yl)-3-(2-(methylthio)-4-((3-oxo-3,4-dihydropyrido[2,3-b]pyrazin-8-yl)oxy)phenyl)urea], the Emax in assay [1] was ≥ 75%. For the same compound, in assay [2], the “Pax7% (pool of Pax7-positive cells)” value is “+”.
Turning to `CSc1cc(Oc2ccnc3c2CCCN3)ccc1NC(=O)Nc1cc(C(C)(C)C)nn1-c1ccccc1` [(be), 1-(3-(tert-butyl)-1-phenyl-1H-pyrazol-5-yl)-3-(2-(methylthio)-4-((5,6,7,8-tetrahydro-1,8-naphthyridin-4-yl)oxy)phenyl)urea], in assay [1], the EC50 was 500 to 1000 nM and the Emax is ≥ 75%. The “Pax7% (pool of Pax7-positive cells)” value in assay [2] is given as “++”.
On to `CNC(=O)c1cc(Oc2ccc(NC(=O)Nc3cc(C(C)(C)C)nn3-c3ccc4ncccc4c3)c3ccccc23)ccn1` [(bf), 4-((4-(3-(3-(tert-butyl)-1-(quinolin-6-yl)-1H-pyrazol-5-yl)ureido)naphthalen-1-yl)oxy)-N-methylpicolinamide], for which the Emax in assay [1] was ≥ 75%. Besides, the “Pax7% (pool of Pax7-positive cells)” value in assay [2] is recorded as “+”.
